# Experimental data from patent US11576913B2 (priority 2018, dated 2023).
# How the values were obtained:
# [1] = system: healthy, non-dependent, recreational sedative users; test: Human abuse potential study, Drug Liking VAS; format: in vivo; conditions: for Drug Liking VAS - EMAX LSMean: N = 50, 100 point bipolar scale; for Drug liking from placebo, Triazolam 1 mg compared with Triazolam 0.5 mg (words): 1 mg vs 0.5 mg
# Protocol: This study was designed as a randomized, single-dose, double-blinded, double dummy, crossover study. The study population was healthy, nondependent recreational polydrug users with a history of Central Nervous System (CNS) depressant use.
# Subjects were screened no more than 28 days before check-in of period 1. Study drug was administered in each period according to the study randomization schedule. During Qualification, there was a minimum 24 hour washout period between each study drug administration. During the Treatment phase, there was a minimum 48-hour washout period between each study drug administration. Subjects were confined to the unit the day prior to, and for at least approximately 24 hours following, study drug administration during each period. If subjects were discharged between treatment periods, subjects returned to the unit the day prior to dosing.
# The Qualification Phase was designed to ensure that polydrug abusing subjects with self-reported recreational CNS depressant/sedative drug experience were able to tolerate and discriminate between orally administered triazolam tablets and placebo as well as to report positive subjective effects of the drug in a controlled laboratory setting. This phase was also used to exclude “placebo responders”, i.e., subjects who report subjective effects of placebo. This phase also helped familiarize subjects with, and trained them in the use of, various scales and questionnaires that measure subjective effects.
# The comparators in an abuse potential study are typically controlled substances from the same pharmacologic class as the investigational drug. However, Compound (1C) is a novel drug class for which no controlled substances/drugs of abuse are available for comparison. […] There was no evidence of other effects of interest to abusers, such as perceptual disturbances or stimulation. […] Placebo control was used to establish the frequency and magnitude of changes in clinical endpoints that may occur in the absence of active treatment as well as to minimize subject and investigator bias.
# In all of the study phases, treatments were blinded to the greatest extent possible to reduce potential bias during data collection and evaluation of clinical endpoints. Because study subjects were recreational drug users and familiar with the effects of the drug substances being studied, the double-dummy technique was be used in the Treatment Phase to maintain blinding. Subjects received tablets orally in each treatment period. Placebo was matched in size and shape to each of the tablet types, and a method to blind subjects will be employed.
# For each phase, subjects received treatments according to the randomization schema. During the Treatment Phase, subjects were be randomized to 1 of sequences in a 6×6 Williams square crossover design.
# Compound (1C) was administered orally in an immediate release tablet comprising the pharmaceutically acceptable excipients croscarmellose sodium (FMC Health and Nutrition, Philadelphia, Pa.), hydroxypropylcellulose (Ashland Inc., Covington, Ky.), microcrystalline cellulose (Dupont, Chicago, Ill.), mannitol (SPI Pharma, Wilmington, Del.), magnesium stearate (PlusPharma Inc., Vista, Calif.), and sodium lauryl sulfate (BASF Corp, Upper St. Clair, Pa.). […] Placebo tablets matching the Compound (1C) tablets were orally administered in the same way. The placebo tablets comprised the above-described pharmaceutically acceptable excipients but with no Compound (1C). Triazolam was administered at a dose of 0.5 or 1 mg. Trial endpoints are provided below.
# Peak Maximum Effect (Emax) for Drug Liking (“at this moment”) visual analog scale (“VAS”), was measured by study participants providing a score on a 100 point bipolar scale with 100 as strong liking, 50 as the neutral point of neither liking nor disliking, and 0 as strong disliking. […]
# [2] = system: healthy, non-dependent, recreational sedative users; test: Human abuse potential study, adverse events and tolerability; format: in vivo; conditions: N = 50
# Protocol: Adverse events were coded to MedDRA terms. Data for AEs were analyzed using the treatment-emergent signs and symptoms (TESS) philosophy. Treatment-emergent signs and symptoms are defined as AEs that: • Emerge during treatment, having been absent at pretreatment; or • Reemerge during treatment, having been present at pretreatment but stopped prior to treatment; or • Worsen in intensity during treatment relative to the pretreatment state, when the AE is continuous.
# Subjects were counted only once in the incidence count for a specific MedDRA Preferred Term, although a MedDRA Preferred Term might be reported more than once for a particular subject. Separate summaries will be provided for Treatment-emergent AEs (“TEAEs”) by maximum intensity (mild, moderate, severe) and relationship (yes, no) to study drug. A TEAE was considered related to study drug if the investigator reported the event to be “definitely, probably, possibly, or unlikely” related to treatment on the CRF.
# [3] = triazolam tablets administered orally; cited from earlier work
smiles,measurement,setting,value
"Cc1nnc2n1-c1ccc(Cl)cc1C(c1ccccc1Cl)=NC2 [Triazolam, triazolam, reference compound]",Drug Liking VAS - EMAX Diff from Placebo LSMean,[1]; 0.5 mg,20.4 points
same,Drug liking compared with placebo (words),[1]; 0.5 mg,significant
same,Drug Liking VAS - EMAX LSMean,[1]; 0.5 mg single oral dose,75.5
same,Drug liking compared with placebo (words),"[1]; 0.5 mg, listed as triazolam",significantly greater than placebo
same,Drug Liking VAS - EMAX Diff from Placebo LSMean,[1]; 1 mg,23.5 points
same,Drug liking compared with placebo (words),[1]; 1 mg,significant
same,Drug Liking VAS - EMAX LSMean,[1]; 1 mg single oral dose,78.6
same,"Drug liking from placebo, Triazolam 1 mg compared with Triazolam 0.5 mg (words)",[1],Triazolam 1 mg had greater drug liking from
same,"Drug liking from placebo, Triazolam 1 mg compared with Triazolam 0.5 mg (words)",[1]; listed as triazolam,greater drug liking from placebo than triazolam 0.5 mg
same,Drug liking compared with placebo (words),"[1]; 1 mg, listed as triazolam",significantly greater than placebo
same,Amnesia,[2]; 0.5 mg,3 (6) n (%)
same,Ataxia,[2]; 0.5 mg,21 (42) n (%)
same,Diplopia,[2]; 0.5 mg,4 (8) n (%)
same,Dizziness,[2]; 0.5 mg,7 (14) n (%)
same,Euphoric mood,[2]; 0.5 mg,1 (2) n (%)
same,Headache,[2]; 0.5 mg,2 (4) n (%)
same,Hiccups,[2]; 0.5 mg,10 (20) n (%)
same,Nausea,[2]; 0.5 mg,0 n (%)
same,Somnolence,[2]; 0.5 mg,45 (90) n (%)
same,Vision blurred,[2]; 0.5 mg,3 (6) n (%)
same,Amnesia,[2]; 1 mg,12 (24) n (%)
same,Ataxia,[2]; 1 mg,28 (56) n (%)
same,Diplopia,[2]; 1 mg,5 (10) n (%)
same,Dizziness,[2]; 1 mg,6 (12) n (%)
same,Euphoric mood,[2]; 1 mg,2 (4) n (%)
same,Headache,[2]; 1 mg,0 n (%)
same,Hiccups,[2]; 1 mg,14 (28) n (%)
same,Nausea,[2]; 1 mg,1 (2) n (%)
same,Somnolence,[2]; 1 mg,49 (98) n (%)
same,Vision blurred,[2]; 1 mg,2 (4) n (%)
same,Time to maximum concentration,[3],~1.3 h
